Reference: PMC10674894 (Viruses, 2023)

Experiments:
[1] = system: Vero cells; experiment: Cytotoxicity MTT assay in Vero cells (MNTD, CC50); assay type: cell-based, African green monkey
[2] = system: CHIKV DRDE-07; experiment: In vitro screening against CHIKV (CPE inhibition and MTT cell viability); assay type: cell-based, chikungunya virus; details: for % Cell viability / CPE: Table S1, CHIKV-infected Vero cells; for % Cell viability: MTT assay; for CPE: arbitrary score of cytopathic effect at >48 hpi

Row | SMILES | MNTD ([1]; Table S1, Vero cells) | % Cell viability ([2]; 72 hpi) | CPE [2] | MNTD ([1]; maximum nontoxic dose in Vero cells, MTT) | Cell Viability ([2]; CHIKV-infected Vero cells treated at MNTD, 72 hpi, MTT, cell control + DMSO = 100%)
1 | C/C(=N\NC(=O)c1ccncc1)c1ccccc1N [DCR51, (E)-2-(1-(2-isonicotinoylhydrazono)ethyl)benzenaminium] | 62.5 µM | -2.93% | ++++ (>60% (++++)) | – | –
2 | N#Cc1ccccc1N1CCOCC1 [DCR146, 2-Morpholin-4-yl-benzonitrile] | 250 µM | -3.98% | ++++ (>60% (++++)) | – | –
3 | COc1cccc(N2CCCCC2)c1C#N [DCR143, 2-Methoxy-6-piperidin-1-yl-benzonitrile] | 125 µM | 17.42% | ++++ (>60% (++++)) | – | –
4 | CC1=C(C(=O)OCC[N+](C)(C)C)C(c2ccc(Cl)cc2)NC(=O)N1 (stereo not shown) [DCR106, 2-({[4-(4-chlorophenyl)-6-methyl-2-oxo-1,2,3,4-tetrahydropyrimidin-5-yl]carbonyl}oxy)-N,N,N-trimethylethanaminium] | 62.5 µM | 3.33% | ++++ (>60% (++++)) | – | –
5 | Fc1ccc(C2c3c(ccc4ccccc34)Oc3ccc4ccccc4c32)cc1 [DCR117, 2‐(4‐fluorophenyl)‐13‐oxapentacyclo[12.8.0.0³,¹².0⁴,⁹.0¹⁷,²²]docosa‐1(14),3,5,7,9,11,15,17(22),18,20‐decaene] | 125 µM | 14.01% | ++++ (>60% (++++)) | – | –
6 | C/C(=N\NC(=O)c1cccnc1)c1c(O)ccc2ccccc12 [DCR47, (E)-N'-(1-(2-hydroxynaphthalen-1-yl)ethylidene)nicotinohydrazide] | 31.25 µM | 6.42% | ++++ (>60% (++++)) | – | –
7 | C#CCOC(=O)C1=C(C)NC(=O)NC1c1cccc(Cl)c1 (stereo not shown) [DCR89, prop-2-yn-1-yl 4-(3-chlorophenyl)-6-methyl-2-oxo-1,2,3,4-tetrahydropyrimidine-5-carboxylate] | 205.1 µM | 10.94% | ++++ (>60% (++++)) | – | –
8 | CCOc1cc(C2C3=C(CC(C)(C)CC3=O)OC3=C2C(=O)CC(C)(C)C3)ccc1O [DCR130, 9‐(3‐ethoxy‐4‐hydroxyphenyl)‐3,3,6,6‐tetramethyl‐2,3,4,5,6,7,8,9‐octahydro‐1H‐xanthene‐1,8‐dione] | 15.6 µM | 17.21% | ++++ (>60% (++++)) | – | –
9 | O=C(CCl)NNC(=O)c1ccncc1 [DCR12, N'-(2-chloroacetyl)isonicotinohydrazide] | 31.25 µM | 16.34% | ++++ (>60% (++++)) | – | –
10 | O=C1NC(c2ccc(F)cc2)c2c(ccc3ccccc23)O1 (stereo not shown) [DCR65, 1-(4-fluorophenyl)-1H,2H,3H-naphtho[1,2-e][1,3]oxazin-3-one] | 53.27 µM | 12.63% | ++++ (>60% (++++)) | – | –
11 | Cc1ccccc1/C=N/NC(=O)c1ccncc1 [DCR30, (E)-N'-(2-methylbenzylidene)isonicotinohydrazide] | 62.5 µM | 23.8% | ++++ (>60% (++++)) | – | –
12 | N#Cc1c(F)cccc1N1CCCCC1 [DCR141, 2-Fluoro-6-piperidin-1-yl-benzonitrile] | 125 µM | 19.24% | ++++ (>60% (++++)) | – | –
13 | O=C(N/N=C/c1ccc(Cl)cc1)c1cccnc1 [DCR25, (E)-N'-(4-chlorobenzylidene)nicotinohydrazide] | 62.5 µM | 30.15% | ++++ (>60% (++++)) | – | –
14 | CC(=O)Cc1noc(-c2ccccc2)n1 [DCR78, 1-(5-phenyl-1,2,4-oxadiazol-3-yl)propan-2-one] | 125 µM | 17.32% | ++++ (>60% (++++)) | – | –
15 | C#CCOC(=O)C1=C(C)NC(=O)NC1c1ccccc1 (stereo not shown) [DCR92, prop-2-yn-1-yl 6-methyl-2-oxo-4-phenyl-1,2,3,4-tetrahydropyrimidine-5-carboxylate] | 462.48 µM | 12.8% | ++++ (>60% (++++)) | – | –
16 | C/C(=N\NC(=O)c1ccncc1)c1c(O)ccc2ccccc12 [DCR52, N'-[(1E)-1-(2-hydroxynaphthalen-1-yl)ethylidene]pyridine-4-carbohydrazide] | 31.25 µM | 30.87% | ++++ (>60% (++++)) | – | –
17 | CCOc1ccc(C2NC(=O)NC(C)=C2C(=O)OCCN(C)C)cc1 (stereo not shown) [DCR72, 2-(dimethylamino)ethyl 4-(4-ethoxyphenyl)-6-methyl-2-oxo-1,2,3,4-tetrahydropyrimidine-5-carboxylate] | 31.25 µM | 25.42% | ++++ (>60% (++++)) | – | –
18 | O=C(O)c1ccc(/C=N/NC(=O)c2cccnc2)cc1 [DCR28, (E)-4-((2-nicotinoylhydrazono)methyl)benzoic acid] | 62.5 µM | 15.63% | ++++ (>60% (++++)) | – | –
19 | CC(=O)Cc1noc(-c2ccc(Br)cc2)n1 [DCR85, 1-[5-(4-bromophenyl)-1,2,4-oxadiazol-3-yl]propan-2-one] | 222.34 µM | 10.38% | ++++ (>60% (++++)) | – | –

Row | SMILES | MNTD ([1]; Table S1, Vero cells) | % Cell viability ([2]; 72 hpi) | CPE [2] | MNTD ([1]; maximum nontoxic dose in Vero cells, MTT) | Cell Viability ([2]; CHIKV-infected Vero cells treated at MNTD, 72 hpi, MTT, cell control + DMSO = 100%)
20 | Clc1cccc(C2c3c(ccc4ccccc34)Oc3ccc4ccccc4c32)c1 [DCR116, 2‐(3‐chlorophenyl)‐13‐oxapentacyclo[12.8.0.0³,¹².0⁴,⁹.0¹⁷,²²]docosa‐1(14),3,5,7,9,11,15,17(22),18,20‐decaene] | 31.25 µM | 10.84% | ++++ (>60% (++++)) | – | –
21 | Cc1ccc(/C=N/NC(=O)c2cccnc2)cc1 [DCR16, (E)-N'-(4-methylbenzylidene)nicotinohydrazide] | 31.25 µM | 18.49% | ++++ (>60% (++++)) | – | –
22 | O=C(NNC(=O)c1ccccc1Cl)c1ccncc1 [DCR10, N'-(2-chlorobenzoyl)isonicotinohydrazide] | 31.25 µM | 21.19% | ++++ (>60% (++++)) | – | –
23 | O=C(NNC(=O)c1ccccc1Cl)c1cccnc1 [DCR5, N'-(2-chlorobenzoyl)nicotinohydrazide] | 31.25 µM | 13.49% | ++++ (>60% (++++)) | – | –
24 | Nc1nc(N)c2ccccc2n1 [DCR 134, Quinazoline-2,4-diamine] | 150 µM | – | + (<30%) | 150 µM | 75.9%
25 | CCOc1ccc(C2NC(=O)Oc3ccc4ccccc4c32)cc1 (stereo not shown) [DCR69, 1-(4-ethoxyphenyl)-1H,2H,3H-naphtho[1,2-e][1,3]oxazin-3-one] | 195.71 µM | 7.61% | ++++ (>60% (++++)) | – | –
26 | N#Cc1cc(F)ccc1N1CCCCC1 [DCR145, 5-Fluoro-2-piperidin-1-yl-benzonitrile] | 125 µM | 0% | ++++ (>60% (++++)) | – | –
27 | COc1ccc(C2NC(=O)NC(C)=C2C(=O)OCCC(C)C)cc1 (stereo not shown) [DCR96, 3-methylbutyl 4-(4-methoxyphenyl)-6-methyl-2-oxo-1,2,3,4-tetrahydropyrimidine-5-carboxylate] | 376.06 µM | 11.71% | ++++ (>60% (++++)) | – | –
28 | C/C(=N\NC(=O)c1ccncc1)c1ccc(O)cc1 [DCR50, (E)-N'-(1-(4-hydroxyphenyl)ethylidene)isonicotinohydrazide] | 62.5 µM | 18.01% | ++++ (>60% (++++)) | – | –
29 | Fc1cccc(C2c3c(ccc4ccccc34)Oc3ccc4ccccc4c32)c1 [DCR119, 2‐(3‐fluorophenyl)‐13‐oxapentacyclo[12.8.0.0³,¹².0⁴,⁹.0¹⁷,²²]docosa‐1(14),3,5,7,9,11,15,17(22),18,20‐decaene] | 31.25 µM | 18.74% | ++++ (>60% (++++)) | – | –
30 | O=C(N/N=C/c1cccc(Br)c1)c1ccncc1 [DCR37, (E)-N'-(3-bromobenzylidene)isonicotinohydrazide] | 31.25 µM | 14.36% | ++++ (>60% (++++)) | – | –
31 | Cc1ccccc1/C=N/NC(=O)c1cccnc1 [DCR15, (E)-N'-(2-methylbenzylidene)nicotinohydrazide] | 31.25 µM | 14.76% | ++++ (>60% (++++)) | – | –
32 | O=C(N/N=C/c1ccccc1)c1cccnc1 [DCR14, (E)-N'-benzylidenenicotinohydrazide] | 31.25 µM | 22.93% | ++++ (>60% (++++)) | – | –
33 | CC1CN(c2ccccc2C#N)CC(C)N1 (stereo not shown) [DCR142, 2-(3,5-Dimethyl-piperazin-1-yl)-benzonitrile] | 125 µM | 13.08% | ++++ (>60% (++++)) | – | –
34 | CC1=C(C(=O)OCCN(C)C)C(c2ccc(Cl)cc2)NC(=O)N1 (stereo not shown) [DCR108, 2-(dimethylamino)ethyl 4-(4-chlorophenyl)-6-methyl-2-oxo-1,2,3,4-tetrahydropyrimidine-5-carboxylate] | 62.5 µM | 13.99% | ++++ (>60% (++++)) | – | –
35 | CC1(C)CC(=O)C2=C(C1)OC1=C(C(=O)CC(C)(C)C1)C2c1ccc([N+](=O)[O-])cc1 [DCR126, 3,3,6,6‐tetramethyl‐9‐(4‐nitrophenyl)‐2,3,4,5,6,7,8,9‐octahydro‐1H‐xanthene‐1,8‐dione] | 15.6 µM | 17.99% | ++++ (>60% (++++)) | – | –
36 | CC1=C(C(=O)OCCN(C)C)C(c2ccc([N+](=O)[O-])cc2)NC(=O)N1 (stereo not shown) [DCR73, 2-(dimethylamino)ethyl 6-methyl-4-(4-nitrophenyl)-2-oxo-1,2,3,4-tetrahydropyrimidine-5-carboxylate] | 31.25 µM | 24.54% | ++++ (>60% (++++)) | – | –
37 | C#CCOC(=O)C1=C(C)NC(=O)NC1c1ccc(C(F)(F)F)cc1 (stereo not shown) [DCR91, prop-2-yn-1-yl 6-methyl-2-oxo-4-[4-(trifluoromethyl)phenyl]-1,2,3,4-tetrahydropyrimidine-5-carboxylate] | 369.52 µM | 13.12% | ++++ (>60% (++++)) | – | –
